Laboratory results: article PMC12040169 (PLOS Biology, 2025)

Test: in vitro
Conditions: human, hela cells, % viability

In the case of `O=C(Cc1ccccc1)N1CCC(CC(=O)N2CCC3(CCCCC3)C2)CC1` [CBK286031], the viability at 28.5 h, 10 µM is reported as 93.8%.
Compound `CSc1nnc(-c2ccco2)n1-c1cccc(Cl)c1C` [CBK067723] has a viability at 28.5 h, 10 µM of 93.1%.
`CCN(CC)C(=O)C1CCCN(C(=O)c2ccc3c(c2)COC(C2CCN(C(=O)OC(C)(C)C)CC2)O3)C1` (centres unmarked) [CBK173279] showed a viability at 28.5 h, 10 µM of 100%.
In the case of `Cc1cc(CSc2cccs2)no1` [CBK002635], the viability at 28.5 h, 10 µM is reported as 91.8%.
In the case of `O=C(Nc1ccncc1)c1cc2cc(F)ccc2[nH]1` [CBK107346], the viability at 28.5 h, 10 µM is reported as 103%.
Work on `CN1C[C@@H](NC(=O)Nc2ccccc2)C[C@H]1c1nc(-c2ccccc2)no1` [CBK288877] yielded a viability at 28.5 h, 10 µM of 124%.
With `CCn1cc(-c2cncn2CC(C)N2CCC(C)CC2)cn1` (centres unmarked) [CBK281565] the viability at 28.5 h, 10 µM was 91.7%.
`O=C(NCCCC1CCOC1)c1cnn(-c2ccc(F)cc2)c1` (centres unmarked) [CBK283288] gave a viability at 28.5 h, 10 µM of 92.5%.
`COc1cc(OC)c(NC(=O)C(C)Oc2ccc(Br)cc2)cc1Cl` (centres unmarked) [CBK266791] showed a viability at 28.5 h, 10 µM of 97%.
With `CC(C)(C)OC(=O)N1CCC(C(Cc2ccc(-c3ccc(S(C)(=O)=O)cc3)cc2)C(=O)NCCOCCO)CC1` (centres unmarked) [CBK173128] the viability at 28.5 h, 10 µM was 83.7%.
In the case of `COC1C(O)C(CO)OC1n1cc(F)c(=O)[nH]c1=O` (centres unmarked) [CBK201253], the viability at 28.5 h, 10 µM is reported as 91.4%.
In the case of `O=C1CC(c2ccccc2)CC(=O)N1c1ccc(N2CCOCC2)cc1` [CBK291191], the viability at 28.5 h, 10 µM is reported as 108%.
`CCOc1cccc(CNc2ccc(O)cc2)c1OCc1ccc(Cl)cc1Cl` [CBK074528] showed a viability at 28.5 h, 10 µM of 106%.
`S=C(Nc1ccc(Nc2ccccc2)cc1)N1CCN(Cc2ccc3c(c2)OCO3)CC1` [CBK266141] showed a viability at 28.5 h, 10 µM of 96.7%.
For `COc1cc(/C=C(/C#N)c2ccc(C(=O)O)cc2)ccc1OCc1cccc([N+](=O)[O-])c1` [CBK269057], the viability at 28.5 h, 10 µM was 108%.
With `NC(=O)C1(N2CCCCC2)CCN(Cc2nc(O)c3ccccc3n2)CC1` [CBK265896] the viability at 28.5 h, 10 µM was 103%.
`O=C(CCN1C(=O)/C(=C\C=C\c2ccccc2)SC1=S)Nc1ccc(C(=O)O)cc1` [CBK264818] showed a viability at 28.5 h, 10 µM of 104%.
Work on `COc1ccc(CN2Cc3nc[nH]c3C[C@H]2C(=O)N2CCC(Cc3ccccc3)CC2)cc1` [CBK288980] yielded a viability at 28.5 h, 10 µM of 110%.
`CCOC(=O)c1cc(-c2cccc(Cl)c2)oc1C` [CBK045775] gave a viability at 28.5 h, 10 µM of 104%.
With `C=CCn1c(Cc2csc(NC(=O)c3ccc([N+](=O)[O-])c(C)c3)n2)n[nH]c1=S` [CBK295323] the viability at 28.5 h, 10 µM was 87%.
With `CN1C(=O)c2ccccc2OCCCCC[C@H]2[C@@H]1CCCN2C(=O)c1ccccc1Cn1cncn1` [CBK292114] the viability at 28.5 h, 10 µM was 110%.
For `O=C(O)CCC(=O)Nc1ccccc1NC(=O)c1ccc(C(F)(F)F)cc1` [CBK265770], the viability at 28.5 h, 10 µM was 102%.
`Cc1csc(C(Cc2cccs2)NC(=O)Cc2c(C)[nH]c(=O)[nH]c2=O)n1` (centres unmarked) [CBK286345] showed a viability at 28.5 h, 10 µM of 89.7%.
`Cn1c(CCNC(=O)c2cccs2)nc2cc([N+](=O)[O-])ccc21` [CBK268511] gave a viability at 28.5 h, 10 µM of 83%.
For `Fc1ccc(COc2ccc3ccccc3c2CNc2nn[nH]n2)cc1` [CBK268211], the viability at 28.5 h, 10 µM was 86.9%.
In the case of `N#CCCCN1CCC(Oc2nccnc2OCc2cccc(OCc3ccccc3)c2)CC1` [CBK161572], the viability at 28.5 h, 10 µM is reported as 97.5%.
Work on `COc1cc2c(=O)n(C)c3nncn3c2cc1OC` [CBK288182] yielded a viability at 28.5 h, 10 µM of 98.1%.
Work on `Cc1cccc(C(=O)Nc2nc3ccc(S(C)(=O)=O)cc3s2)c1` [CBK287323] yielded a viability at 28.5 h, 10 µM of 89.8%.
Compound `COC(=O)NC(NC(=O)OC)C(=O)c1ccccc1` [CBK020208] has a viability at 28.5 h, 10 µM of 100%.
Compound `CCNc1ncc(C(=O)N2CCC(Nc3cccnc3)CC2)s1` [CBK304047] has a viability at 28.5 h, 10 µM of 99.6%.
For `O=C(O)COc1cccc2nsnc12` [CBK019749], the viability at 28.5 h, 10 µM was 95.1%.
Work on `COc1cnn(-c2ccccc2)c(=O)c1N(C)C` [CBK020317] yielded a viability at 28.5 h, 10 µM of 94%.
For `O=C(CC1CCCC1)N1CCC(c2nnc3n2CCCCC3)CC1` [CBK284630], the viability at 28.5 h, 10 µM was 84.6%.
With `O=C(Nc1ccncc1)c1ccc(N2C(=O)c3ccccc3C2=O)cc1` [CBK287803] the viability at 28.5 h, 10 µM was 113%.
In the case of `COc1ccc(C(=O)N2CCN(Cc3cccnc3)CC2)cc1OC` [CBK263321], the viability at 28.5 h, 10 µM is reported as 99.3%.
With `O=C(NCC1CCCN1)c1cc(C(=O)c2ccc(Cl)cc2Cl)c[nH]1` (centres unmarked) [CBK115923C] the viability at 28.5 h, 10 µM was 86.1%.
With `O/N=C1\CC2(CCCCC2)c2ccccc21` [CBK013318] the viability at 28.5 h, 10 µM was 83%.
`CC(C)c1nccn1-c1ccc(NC(=O)CCCn2ccnc2)cc1` [CBK281380] showed a viability at 28.5 h, 10 µM of 93%.
Compound `Cc1cc(C)n(Cc2cccc(C(=O)NC(C)Cc3ccccn3)c2)n1` (centres unmarked) [CBK281449] has a viability at 28.5 h, 10 µM of 102%.
In the case of `COc1ccc(C(=O)NCCCN(C)C)cc1Nc1cncc(-c2ccc(O)cc2)n1` [CBK126938T], the viability at 28.5 h, 10 µM is reported as 95%.
Work on `O=c1[nH]c2ncc(-c3cccnc3)nc2n1CCN1CCOCC1` [CBK065070] yielded a viability at 28.5 h, 10 µM of 103%.
With `Cc1cc(C)n(C(CC(=O)c2ccccc2)C(=O)O)n1` (centres unmarked) [CBK287209] the viability at 28.5 h, 10 µM was 90.8%.
For `CC(NC(=O)C1CC(=O)N(c2cccc(F)c2)C1)C1CC2CCC1C2` (centres unmarked) [CBK281664], the viability at 28.5 h, 10 µM was 99.9%.
Compound `CCC1(C)CCCN(Cc2nnnn2-c2ccc(S(C)(=O)=O)cc2)C1` (centres unmarked) [CBK306180] has a viability at 28.5 h, 10 µM of 113%.
For `Cc1ccc(C)c(CC(=O)N(C)C2CCN(C3CCOCC3)CC2)c1` [CBK304964], the viability at 28.5 h, 10 µM was 87.4%.
For `CC1CCCN(C(=O)c2cc(-c3ccccn3)n[nH]2)C1C` (centres unmarked) [CBK283146], the viability at 28.5 h, 10 µM was 88.5%.
For `COc1cc(CNc2nnn[nH]2)cc(Cl)c1OC` [CBK288087], the viability at 28.5 h, 10 µM was 97.8%.
Work on `Cc1nc2cc(C(=O)O)ccc2[nH]1` [CBK220035] yielded a viability at 28.5 h, 10 µM of 84.6%.
In the case of `OC1(CN2CCCC2)CCN(Cc2sccc2Cl)CC1` [CBK307491], the viability at 28.5 h, 10 µM is reported as 105%.
`O=C(Nc1cccc(C(F)(F)F)c1)N1CCN(CCCCc2ccc(F)cc2)CC1` [CBK013363C] showed a viability at 28.5 h, 10 µM of 90.4%.
Compound `Cc1nn(Cc2cccc(C(=O)NCc3ccccn3)c2)c(C)c1Cl` [CBK265755] has a viability at 28.5 h, 10 µM of 97.7%.
Work on `Cc1ccc(-c2csc(CC#N)n2)cc1` [CBK047576] yielded a viability at 28.5 h, 10 µM of 79.3%.
`COC(=O)Cn1c(CN2CCN(c3ccccc3F)CC2)nc2c1c(=O)n(C)c(=O)n2C` [CBK269444] showed a viability at 28.5 h, 10 µM of 93.1%.
Work on `CC(=O)Nc1cc(Cl)ccc1OS(=O)(=O)c1ccc(Cl)cc1` [CBK264992] yielded a viability at 28.5 h, 10 µM of 90.3%.
`COCCNc1nc(-c2ccc(N3CCOCC3)cc2)ccc1C(=O)N1CCN(C)CC1` [CBK105943] showed a viability at 28.5 h, 10 µM of 111%.
Work on `CC(=O)c1cc2c(cc1NC(=O)CSc1ccccn1)OCO2` [CBK266225] yielded a viability at 28.5 h, 10 µM of 94.2%.
For `COCCn1c(Cc2ccccc2)nnc1SCc1ccc2ccccc2c1` [CBK265985], the viability at 28.5 h, 10 µM was 96.6%.
`O=C(O)C1C2C=CC(C2)C1C(=O)N1CCc2ccccc21` (centres unmarked) [CBK286537] showed a viability at 28.5 h, 10 µM of 85.2%.
`CCCOCCCNS(=O)(=O)c1ccc(C(C)(C)CC)cc1` [CBK044821] showed a viability at 28.5 h, 10 µM of 106%.
For `COCC1CCN(c2c(F)cc(C#N)cc2F)CC1` [CBK306244], the viability at 28.5 h, 10 µM was 104%.
In the case of `CN1CCN(C)C(CNC(=O)c2ccc(-c3ccccc3CO)cc2)C1` (centres unmarked) [CBK307475], the viability at 28.5 h, 10 µM is reported as 84.2%.
Work on `N#Cc1cccc(CN2CCC(Cc3ccccc3)CC2)c1` [CBK126380] yielded a viability at 28.5 h, 10 µM of 87.1%.
With `O=C(c1nc2ncccn2n1)N1CCc2ccccc2C1` [CBK288079] the viability at 28.5 h, 10 µM was 88%.
`O=C(CSc1nccn1-c1ccccc1)Nc1ccc(F)cc1` [CBK287399] gave a viability at 28.5 h, 10 µM of 76.1%.
Compound `N#Cc1cnn2c(C(F)(F)F)cc(C(F)(F)F)nc12` [CBK014064] has a viability at 28.5 h, 10 µM of 93.5%.
